Laboratory results reported in US20160138077A1, “MONITORING AND ASSESSING DEACETYLASE ENZYME ACTIVITY” (THE GENERAL HOSPITAL CORPORATION, priority 2013, published 2016).

Key:
Type in all cases: biochemical
Cathepsin B = biological target: T1, Cathepsin B (Homo sapiens, UniProt P07858); test: LCMS assay of protease enzymatic action on HP-1; conditions: −SAHA, 5 μM HP-1, 12 hours at 37° C.
T1 construct: purchased EMD Millipore
Experimental: (§1) The enzymatic cleavage of HP-1 was analyzed by performing LCMS assays with sirtuin 1 and 3 (Cayman Chemicals) and the proteases chymotrypsin (Sigma-Aldrich), cathepsin (EMD Millipore), and pepsin* (Sigma-Aldrich). Solutions containing (i) vehicle with DMSO in HDAC buffer, (ii) 5 μM HP-1 in HDAC buffer, and (iii) 5 μM HP-1 and the enzyme in HDAC buffer were incubated for 12 hours at 37° C. Following incubation, a 20 μL aliquot of supernatant from each sample was analyzed by LCMS. Deacetylation of HP-1 was investigated by screening for the DHP-1 (M+H)^+ ion following positive electrospray ionization. All assay samples were analyzed in triplicate. […]
(§2) HP-1 was not altered by sirtuins 1 and 3 or the proteases chymotrypsin, cathepsin and pepsin, as determined by LCMS. […] For Cathepsin B, the cleavage of the enzyme substrate, z-RR-pNA (Santa Cruz Biotechnology, Dallas, Tex.) was monitored using a Wallac EnVision 2103 Multilabel fluorescence plate reader (PerkinElmer, Waltham, Mass.) with a 405 nm excitation filter, a 406 nm emission filter, and a gain of 150. The cleavage of the pepsin substrate, Ac-Phe-Tyr-OH (Chem-Impex Inc.), was monitored by LCMS at pH 4. […]

Chymotrypsin = biological target: T2, Chymotrypsin (Bos taurus, UniProt P00766); test: LCMS assay of protease enzymatic action on HP-1; conditions: −SAHA, 5 μM HP-1, 12 hours at 37° C.
T2 construct: purchased Sigma-Aldrich
Experimental: as §1, §2

HDAC8 = biological target: T3, HDAC8 (Homo sapiens, UniProt Q9BY41); test: LCMS characterization of enzymatic deacetylation by HDAC8; conditions: 5 μM probe, 12 hours at 37° C.
T3 construct: purchased Cayman Chemicals
T3 sequence (Q9BY41 1-377): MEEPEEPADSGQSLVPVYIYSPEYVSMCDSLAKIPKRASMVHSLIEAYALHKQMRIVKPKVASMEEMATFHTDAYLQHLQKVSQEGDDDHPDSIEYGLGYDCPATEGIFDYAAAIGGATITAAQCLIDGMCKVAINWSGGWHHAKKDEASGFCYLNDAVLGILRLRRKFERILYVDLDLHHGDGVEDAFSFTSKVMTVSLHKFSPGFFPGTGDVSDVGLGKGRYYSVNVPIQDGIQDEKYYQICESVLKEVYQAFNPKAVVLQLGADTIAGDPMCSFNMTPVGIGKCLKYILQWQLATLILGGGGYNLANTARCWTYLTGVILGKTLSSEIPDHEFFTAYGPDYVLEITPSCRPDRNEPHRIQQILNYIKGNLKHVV
Experimental: The enzymatic cleavage of HP-1 and HP-2 was analyzed by performing LCMS assays with HeLa nuclear extract (AnaSpec), HeLa whole cell lysate (Santa Cruz Inc.), and the following purified HDAC isoforms: 1, 2, 3, 6 and 8 (HDAC1, 3 and 8 from Cayman Chemicals and HDAC2 and 6 provided by Dr. Stephen Haggarty). Solutions containing (i) vehicle with DMSO in HDAC buffer, (ii) 5 μM probe in HDAC buffer, (iii) 5 μM probe and HDAC enzyme/HeLa nuclear extract/HeLa whole cell lysate in HDAC buffer, or (iv) 5 μM probe and HDAC enzyme/HeLa nuclear extract/HeLa whole cell lysate pre-incubated with 10 μM SAHA (Provided by Dr. Stephen Haggarty) in HDAC buffer were incubated for 12 hours at 37° C. Following incubation, a 20 μL aliquot of supernatant from each sample was analyzed by LCMS. […] For HP-1, the (M+H)^+ ion for the corresponding aldehyde (8, DHP-1) was detected, which formed following reaction of the initial imine deacetylation product with water. […] The peak area for each detected compound was measured to determine the % deacetylation of each probe. All assay samples were analyzed in triplicate. […]
LCMS characterization of HDAC enzymatic action on HP-1 and HP-2. […] Following incubation, an aliquot of supernatant from each sample was analyzed by LCMS. […] The peak area for each detected compound was measured to determine the % deacetylation of each probe (full experimental details in Example 1).

Measured: % HP-1 to DHP-1

CC(=O)NC=CCCCCNC(=O)CCCCCNc1ccc([N+](=O)[O-])c2nonc12 [HP-1]
0%: Cathepsin B | Chymotrypsin | HDAC8; HDAC8, +SAHA (10 μM) | HDAC8; HDAC8, −SAHA
